Laboratory results reported in patent US7560443B2, “Mixtures of fructose, sucrose and lactose as a low-calorie bulk sweetener with reduced glycemic index” (Vivalac, Inc. A Maryland Corp., priority 2002, dated 2009).
Like-named read-outs stand apart in the source and are kept apart here.

Key:
plasma glucose [1] = settings: glucose = 100, cited from earlier work
blood glucose = settings: diabetic volunteers after normal insulin or oral agents, vs glucose (GI=100); cited from earlier work
plasma glucose [2] = settings: untreated diabetics, Gannon et al; cited from earlier work
human sucrase = human sucrase (Homo sapiens, UniProt P14410); settings: in vitro; cited from earlier work
Chain of human sucrase (P14410 whole entry): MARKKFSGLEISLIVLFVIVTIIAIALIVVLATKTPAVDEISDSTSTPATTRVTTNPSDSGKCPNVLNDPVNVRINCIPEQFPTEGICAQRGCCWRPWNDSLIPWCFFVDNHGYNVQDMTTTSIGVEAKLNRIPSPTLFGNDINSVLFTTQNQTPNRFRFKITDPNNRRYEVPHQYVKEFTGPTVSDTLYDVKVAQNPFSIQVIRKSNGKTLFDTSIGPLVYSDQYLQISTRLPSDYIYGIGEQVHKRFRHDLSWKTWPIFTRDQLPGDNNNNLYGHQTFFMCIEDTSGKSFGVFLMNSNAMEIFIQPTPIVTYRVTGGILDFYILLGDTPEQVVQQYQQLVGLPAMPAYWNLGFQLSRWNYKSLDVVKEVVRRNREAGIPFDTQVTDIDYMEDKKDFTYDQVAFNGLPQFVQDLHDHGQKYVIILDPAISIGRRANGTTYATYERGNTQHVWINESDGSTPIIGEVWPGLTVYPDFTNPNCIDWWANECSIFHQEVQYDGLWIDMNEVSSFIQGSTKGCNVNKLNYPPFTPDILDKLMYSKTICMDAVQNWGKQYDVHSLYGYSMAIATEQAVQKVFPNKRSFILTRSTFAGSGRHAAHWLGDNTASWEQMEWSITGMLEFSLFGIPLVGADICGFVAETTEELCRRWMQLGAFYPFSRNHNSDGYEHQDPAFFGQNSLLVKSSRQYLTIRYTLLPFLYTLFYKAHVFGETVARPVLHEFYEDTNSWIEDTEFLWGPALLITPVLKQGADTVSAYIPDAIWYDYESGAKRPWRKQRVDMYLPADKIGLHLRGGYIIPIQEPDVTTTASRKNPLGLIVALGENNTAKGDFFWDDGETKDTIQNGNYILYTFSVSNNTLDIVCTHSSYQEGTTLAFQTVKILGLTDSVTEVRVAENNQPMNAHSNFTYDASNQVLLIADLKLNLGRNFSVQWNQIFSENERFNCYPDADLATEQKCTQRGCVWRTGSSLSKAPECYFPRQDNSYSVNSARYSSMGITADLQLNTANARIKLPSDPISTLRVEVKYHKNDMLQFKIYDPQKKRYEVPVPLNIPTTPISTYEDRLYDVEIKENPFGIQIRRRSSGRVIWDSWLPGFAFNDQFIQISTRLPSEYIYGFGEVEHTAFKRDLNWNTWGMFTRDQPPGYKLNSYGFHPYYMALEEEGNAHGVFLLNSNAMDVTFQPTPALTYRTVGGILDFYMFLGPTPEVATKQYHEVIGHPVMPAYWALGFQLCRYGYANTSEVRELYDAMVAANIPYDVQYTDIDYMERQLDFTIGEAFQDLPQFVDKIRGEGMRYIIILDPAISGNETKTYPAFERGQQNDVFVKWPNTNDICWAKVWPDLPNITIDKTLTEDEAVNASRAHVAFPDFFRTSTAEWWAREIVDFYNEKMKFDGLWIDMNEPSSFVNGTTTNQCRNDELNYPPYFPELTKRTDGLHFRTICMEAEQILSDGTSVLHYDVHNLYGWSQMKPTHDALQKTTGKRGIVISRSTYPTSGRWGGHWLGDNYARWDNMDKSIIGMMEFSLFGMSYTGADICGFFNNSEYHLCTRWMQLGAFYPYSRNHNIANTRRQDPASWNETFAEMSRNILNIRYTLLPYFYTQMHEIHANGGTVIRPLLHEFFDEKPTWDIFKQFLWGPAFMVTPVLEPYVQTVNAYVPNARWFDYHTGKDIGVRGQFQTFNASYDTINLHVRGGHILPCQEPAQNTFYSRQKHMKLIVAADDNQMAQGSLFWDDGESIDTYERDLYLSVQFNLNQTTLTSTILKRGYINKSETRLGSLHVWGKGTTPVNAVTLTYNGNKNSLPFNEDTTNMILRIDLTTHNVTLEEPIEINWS

maltase = settings: in vitro; cited from earlier work
human lactase = human lactase (Homo sapiens, UniProt P09848); settings: in vitro; cited from earlier work
Chain of human lactase (P09848 869-1927): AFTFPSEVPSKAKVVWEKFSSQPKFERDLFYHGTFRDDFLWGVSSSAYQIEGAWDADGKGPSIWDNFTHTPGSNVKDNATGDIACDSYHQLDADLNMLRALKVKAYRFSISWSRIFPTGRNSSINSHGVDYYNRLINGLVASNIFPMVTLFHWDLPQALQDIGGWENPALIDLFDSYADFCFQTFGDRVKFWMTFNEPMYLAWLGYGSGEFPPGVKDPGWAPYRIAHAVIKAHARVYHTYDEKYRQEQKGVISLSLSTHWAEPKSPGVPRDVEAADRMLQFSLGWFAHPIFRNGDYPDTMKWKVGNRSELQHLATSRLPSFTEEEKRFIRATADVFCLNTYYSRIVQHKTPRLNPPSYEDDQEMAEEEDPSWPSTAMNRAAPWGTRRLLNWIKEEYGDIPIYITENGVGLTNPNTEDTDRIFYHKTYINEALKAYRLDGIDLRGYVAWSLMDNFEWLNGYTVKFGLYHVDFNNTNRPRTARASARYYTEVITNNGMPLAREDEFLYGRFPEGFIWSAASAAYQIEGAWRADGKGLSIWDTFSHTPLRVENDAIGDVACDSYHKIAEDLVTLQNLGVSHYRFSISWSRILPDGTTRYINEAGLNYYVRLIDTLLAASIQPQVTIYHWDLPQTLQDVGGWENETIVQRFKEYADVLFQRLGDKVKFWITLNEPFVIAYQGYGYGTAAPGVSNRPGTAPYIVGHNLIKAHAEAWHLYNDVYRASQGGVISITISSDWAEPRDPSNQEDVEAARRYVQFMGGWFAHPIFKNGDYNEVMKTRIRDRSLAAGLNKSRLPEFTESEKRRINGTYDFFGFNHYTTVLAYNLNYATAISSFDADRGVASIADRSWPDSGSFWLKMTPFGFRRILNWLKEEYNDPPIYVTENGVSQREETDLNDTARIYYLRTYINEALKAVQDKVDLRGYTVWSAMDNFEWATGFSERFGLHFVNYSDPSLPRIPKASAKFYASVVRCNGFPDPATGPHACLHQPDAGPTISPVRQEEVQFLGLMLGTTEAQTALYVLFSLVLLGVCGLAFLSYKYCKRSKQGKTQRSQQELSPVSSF

rabbit sucrase = rabbit sucrase (Oryctolagus cuniculus, UniProt P07768); settings: in vitro; cited from earlier work
Chain of rabbit sucrase (P07768 whole entry): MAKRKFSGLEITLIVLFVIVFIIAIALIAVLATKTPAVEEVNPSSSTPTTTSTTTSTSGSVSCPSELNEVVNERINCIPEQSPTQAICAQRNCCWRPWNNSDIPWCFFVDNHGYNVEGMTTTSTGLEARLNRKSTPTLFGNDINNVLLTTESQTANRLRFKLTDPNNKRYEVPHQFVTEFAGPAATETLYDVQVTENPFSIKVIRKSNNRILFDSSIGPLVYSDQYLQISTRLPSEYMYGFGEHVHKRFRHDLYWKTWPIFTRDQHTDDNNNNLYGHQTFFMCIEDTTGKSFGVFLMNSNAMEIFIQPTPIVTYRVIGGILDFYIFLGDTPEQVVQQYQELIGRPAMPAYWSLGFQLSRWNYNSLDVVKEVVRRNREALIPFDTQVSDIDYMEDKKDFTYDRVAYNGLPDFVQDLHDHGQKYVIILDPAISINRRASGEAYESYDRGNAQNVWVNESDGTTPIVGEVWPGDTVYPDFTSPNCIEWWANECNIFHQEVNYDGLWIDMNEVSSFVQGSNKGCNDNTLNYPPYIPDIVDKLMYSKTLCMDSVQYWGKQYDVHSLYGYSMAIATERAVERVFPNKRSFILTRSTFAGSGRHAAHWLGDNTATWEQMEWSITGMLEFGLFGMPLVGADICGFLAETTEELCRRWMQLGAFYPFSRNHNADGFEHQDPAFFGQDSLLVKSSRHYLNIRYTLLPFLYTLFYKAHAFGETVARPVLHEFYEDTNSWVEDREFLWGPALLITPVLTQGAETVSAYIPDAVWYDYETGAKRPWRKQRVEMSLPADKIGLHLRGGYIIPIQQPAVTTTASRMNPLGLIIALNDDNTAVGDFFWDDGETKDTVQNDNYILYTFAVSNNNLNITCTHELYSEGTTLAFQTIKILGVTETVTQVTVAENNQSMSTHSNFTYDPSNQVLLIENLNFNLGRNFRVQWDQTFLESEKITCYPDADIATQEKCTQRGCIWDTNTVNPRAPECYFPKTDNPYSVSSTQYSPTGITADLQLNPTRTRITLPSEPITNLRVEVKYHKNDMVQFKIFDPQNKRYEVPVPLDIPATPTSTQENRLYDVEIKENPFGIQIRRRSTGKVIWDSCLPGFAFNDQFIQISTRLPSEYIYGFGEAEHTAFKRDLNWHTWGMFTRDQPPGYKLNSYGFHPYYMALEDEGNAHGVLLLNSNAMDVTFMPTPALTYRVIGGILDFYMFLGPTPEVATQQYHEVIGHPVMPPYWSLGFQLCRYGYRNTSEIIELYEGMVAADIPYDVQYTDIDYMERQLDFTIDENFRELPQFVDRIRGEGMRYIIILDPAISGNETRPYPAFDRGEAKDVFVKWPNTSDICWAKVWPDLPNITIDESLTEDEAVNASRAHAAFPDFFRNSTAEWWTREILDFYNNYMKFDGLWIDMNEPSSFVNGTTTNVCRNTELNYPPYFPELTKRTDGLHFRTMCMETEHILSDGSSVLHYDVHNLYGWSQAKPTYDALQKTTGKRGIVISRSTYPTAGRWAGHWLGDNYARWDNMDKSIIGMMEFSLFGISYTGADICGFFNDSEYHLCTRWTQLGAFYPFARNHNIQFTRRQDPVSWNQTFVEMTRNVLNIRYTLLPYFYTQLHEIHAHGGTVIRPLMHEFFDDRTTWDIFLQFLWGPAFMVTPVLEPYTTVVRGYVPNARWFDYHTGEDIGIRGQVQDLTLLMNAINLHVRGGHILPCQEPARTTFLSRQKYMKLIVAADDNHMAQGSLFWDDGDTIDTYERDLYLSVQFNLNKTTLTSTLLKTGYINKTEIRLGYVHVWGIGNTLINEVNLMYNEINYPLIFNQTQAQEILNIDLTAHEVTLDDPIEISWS

rabbit maltase = settings: in vitro; cited from earlier work
human small intestine = settings: cited from earlier work
rats [3] = settings: cited from earlier work
rats [4] = settings: cited from earlier work; for body fat lowering vs controls: pair-fed rats
plasma glucose [5] = experiment: OTT, aqueous sugar solutions (50 g in 200 g water), Subject #1; assay type: in vivo, human; settings: Subject #1, N=3
Experimental: The test subject (Subject #1) was a person in good health, with a body mass index (BMI) equal to 28.6 kg/m^2. The subject was required to exercise moderately at least 30 minutes each day before testing, sleep at least 7 hours the previous night, and fast for no less than 12 hours prior to oral tolerance testing (OTT) early the next morning. Water was restricted 1.5 hours prior to testing, and only small sips of water were allowed infrequently during OTT. The test article, described below, was ingested as quickly as possible after the time 0 blood sample was obtained. Subsequent blood samples were taken at 30, 60, 90, 120, 150, and 180 minutes, and plasma glucose measurements were recorded in units of mg/dL immediately each time using a hand-held glucometer (At•Last model, Amira Medical, Scotts Valley, Calif. 95066). The subject abstained from food and remained sedentary during the 3-hour test. Clinical observations were noted and recorded continuously.
Test articles were aqueous solutions (in 200 g water) of 50 g of total carbohydrates, which were prepared early in the morning before the test. All of the same protocol criteria were applied for the test, as described in Example 1 above, except that times for blood samples were 0, 30, 45, 60, 90, 120, and 180 minutes. The test subjects were Subject #1, described above, and Subject #2, a healthy person (BMI=27.7 kg/m^2). […]

plasma glucose [6] = experiment: OTT, aqueous solutions (25 g in 100 g water), type 2 diabetic subject (DM2); assay type: in vivo, human
Experimental: Test articles were aqueous solutions (in 200 g water) of 50 g of total carbohydrates, which were prepared early in the morning before the test. All of the same protocol criteria were applied for the test, as described in Example 1 above, except that times for blood samples were 0, 30, 45, 60, 90, 120, and 180 minutes. The test subjects were Subject #1, described above, and Subject #2, a healthy person (BMI=27.7 kg/m^2). See FIGS. 3 and 2, respectively, for results of their OTT's.
Calculation of estimated caloric value (ECV) demands some explanation here, as the calculation requires acceptance of some reasonable assumptions: • GI values for lactose monohydrate, fructose, sucrose and oat starch are 46, 23, 64, and 100, respectively. • Caloric values for lactose monohydrate, fructose, sucrose and oat starch are 3.8, 3.7, 3.9, and 3.7 kcal/g, respectively. • The order for complete active absorption of sugar mixtures from the small intestine to the bloodstream is fructose>starch (as maltose and α-dextrins)>sucrose>lactose. • Passive absorption of unhydrolyzed disaccharides is assumed to be zero for these calculations. • Disaccharides not actively absorbed pass to the colon, where they are fully degraded by microflora. • 78% of the disaccharides form short chain fatty acids (SCFA's), which are fully absorbed and used by the body with 50%×0.85=42.5% energy efficiency vs glucose (Livesey, Int J Food Sci Nutr, 44, 221-241, 1993). • 22% of the disaccharides are converted to biomass, which is calorically unavailable to the host (Weber et al, J Lab Clin Med, 110, 259-263, 1987). • NB—Starch (not part of the sweetener) which passes to the colon and is degraded microbially subtracts energy value from the sweetener, a component of which (lactose) caused it to pass to the colon.
The type 2 diabetic subject (DM2) was a person (BMI=32.8 kg/m^2), who was trying to control their diabetes without insulin or oral medications. Their daily drug regimen included Premarin®, Prempro®, Xenical®, and Lipitor®, all taken after OTT was completed each day. […]

[7] = pair-feeding, lactose 30% of diet (Février 1969)
[8] = weanling male rats, 12% lactose, six weeks (Ali and Evans 1971)

## O=C(CO)[C@@H](O)[C@H](O)[C@H](O)CO [fructose]
Plasma glucose [1]
  glycemic index (GI): 23
Blood glucose
  glycemic index (GI): 24
Plasma glucose [2]
  GI values: 6
Human sucrase
  inhibition of sucrose hydrolysis by human sucrase: inhibit
maltase
  inhibition of maltose hydrolysis by maltase: no inhibiting effect
Human lactase
  inhibition of lactose hydrolysis by human lactase: competitively inhibit

## O=C[C@H](O)[C@@H](O)[C@@H](O)[C@H](O)CO [galactose]
Human sucrase
  inhibition of sucrose hydrolysis by human sucrase: no inhibition
Rabbit sucrase
  inhibition of rabbit sucrase: no inhibition
Rabbit maltase
  inhibition of rabbit maltase: no inhibition
maltase
  inhibition of maltose hydrolysis by maltase: no inhibiting effect
Human lactase
  inhibition of lactose hydrolysis by human lactase: competitively inhibit
Human small intestine
  absorption rate relative to fructose: ~1.2 times as fast as fructose

## OC[C@H]1O[C@@H](O[C@H]2[C@H](O)[C@@H](O)C(O)O[C@@H]2CO)[C@H](O)[C@@H](O)[C@H]1O (some centres unmarked) [lactose]
Plasma glucose [1]
  glycemic index (GI): 46
Blood glucose
  glycemic index (GI): 48
Plasma glucose [2]
  GI values: 32
Rats [3]; bioassay based on plasma ketones
  relative availability compared to glucose: 0.59
Rats [3]; bioassay based on weight gain
  relative availability compared to glucose: 0.57
Rats [3]
  metabolizable energy value: 2.1 kcal/g
Rats [4]; ad libitum feeding, lactose 30% of diet (Février 1969)
  reduction of fat content: 20%
Rats [4]; ad libitum feeding, lactose 30% of diet vs starch control (Février 1969)
  reduction of growth rate: 37%
Rats [4]; equalized-growth-feeding, lactose 30% of diet (Février 1969)
  reduction of fat content: 12%
Rats [4]; lactose 30% of diet (Whittier et al 1935)
  body fat lowering vs controls: 38%
Rats [4]; lactose 50% of diet (Baker et al 1967)
  body fat lowering vs controls: 48%
Rats [4]; lactose 52% of diet (Tomarelli et al 1960)
  body fat lowering vs controls: 40%
Rats [4]; [7]
  reduction of fat content: 32%
  reduction of growth rate: 23%
Rats [4]; [8]
  body fat reduction: 30%
  body moisture increase: 11%

## OC[C@H]1O[C@H](O[C@H]2[C@H](O)[C@@H](O)[C@H](O)O[C@@H]2CO)[C@H](O)[C@@H](O)[C@@H]1O [maltose]
Human lactase
  inhibition of lactose hydrolysis by human lactase: no inhibiting effect

## OC[C@H]1O[C@@](CO)(O[C@H]2O[C@H](CO)[C@@H](O)[C@H](O)[C@H]2O)[C@@H](O)[C@@H]1O [sucrose]
Plasma glucose [5]
  AUC: 2935 mg·min/dL
Plasma glucose [6]
  plasma glucose level relative to 200 mg/dL: broke above 200 mg/dL
  time of plasma glucose peak: 45 min
Plasma glucose [6]; 25 g in 100 g water, N=2
  AUC: 6184 mg·min/dL
Plasma glucose [1]
  glycemic index (GI): 64
Plasma glucose [1]; listed as SU
  glycemic index (GI): 64
Blood glucose
  glycemic index (GI): 63
Plasma glucose [2]
  GI values: 43
Human lactase
  inhibition of lactose hydrolysis by human lactase: no inhibiting effect
